According to article PMC11358882, “Neuroprotective Effects of Phenolic Constituents from Drynariae Rhizoma” (Pharmaceuticals, 2024):
Values joined by “and” are separate entries in the source; they are usually repeats but may differ in a detail not shown here. Identical values can stand only once.

Tests used:
AChE from electric eel = target: T1, AChE from electric eel (Electrophorus electricus, UniProt O42275); assay: biochemical; assay type: biochemical; settings: isolated compounds; mean ± SD, n = 3; ND = no detection using test concentration; read-out: IC50 AChE
T1 construct: purchased Sigma-Aldrich Co., St. Louis, USA
T1 sequence (O42275 24-633): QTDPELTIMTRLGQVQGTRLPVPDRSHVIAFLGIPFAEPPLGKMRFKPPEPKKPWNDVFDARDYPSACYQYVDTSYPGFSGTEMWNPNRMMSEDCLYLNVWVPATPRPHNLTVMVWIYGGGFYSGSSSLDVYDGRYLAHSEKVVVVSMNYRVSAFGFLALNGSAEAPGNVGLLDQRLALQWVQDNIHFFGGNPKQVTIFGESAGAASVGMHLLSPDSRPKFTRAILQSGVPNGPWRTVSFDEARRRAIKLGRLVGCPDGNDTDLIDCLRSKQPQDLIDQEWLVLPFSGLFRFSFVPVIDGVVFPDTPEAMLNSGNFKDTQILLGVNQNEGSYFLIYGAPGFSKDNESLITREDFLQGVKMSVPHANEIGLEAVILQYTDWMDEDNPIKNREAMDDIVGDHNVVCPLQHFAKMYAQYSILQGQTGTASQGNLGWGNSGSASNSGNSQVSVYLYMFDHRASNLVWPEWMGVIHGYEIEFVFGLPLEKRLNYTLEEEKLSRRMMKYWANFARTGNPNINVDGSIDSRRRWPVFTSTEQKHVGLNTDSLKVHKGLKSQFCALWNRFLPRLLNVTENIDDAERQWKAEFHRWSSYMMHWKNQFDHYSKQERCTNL
Experimental: (§1) The AChE- and BChE-inhibitory, MTT, and Th T assays were analyzed using a UV–visible (VIS) spectrophotometer (Biotek, EPOCH2, Winooski, VT, USA), ensuring accurate measurements. For BACE1- and MAO-B-inhibitory assays, a multimode microplate reader (SpectraMax M3, Molecular Devices, San Jose, CA, USA) was employed, providing precise readings. Analytical-grade DMSO from DEAJUNG Chemical, Korea, served as a solvent in the bioassays. Reagents and solvents, including AChE from electric eel, acetylthiocholine iodide (ATCh), BChE from equine serum, S-butyrylthiocholine iodide (BTCh), 5,5′-dithiobis [2-nitrobenzoic acid] […] Additionally, the BACE1-inhibitory assay utilized the BACE1 (β-secretase) FRET assay kit from PanVera® Corporation, Madison, USA, while the MAO-B-inhibitory assay employed the MAO-B Inhibitor Screening Kit (Fluorometric) ab284511 from Abcam plc Co., Cambridge, UK.
(§2) The inhibitory activities against cholinesterases (AChE and BChE) were evaluated using a spectrophotometric method previously developed by Ellman et al.. Specifically, ATCh and BTCh were used as substrates to measure the inhibitory effects on AChE and BChE, respectively. The assay mixture consisted of 140 μL of 0.1 M sodium phosphate buffer at pH 7.8, 20 μL of a 0.38 U/mL solution of either AChE or BChE, and 20 μL of the test sample solution. This mixture was thoroughly mixed and then incubated at room temperature for 15 min. […] Reactions were initiated by adding 10 μL of 0.5 mM DTNB and 10 μL of either 0.6 mM ATCh or BTCh. ChE-inhibitory activity was monitored by measuring the formation of the yellow 5-thio-2-nitrobenzoate anion at 412 nm over 15 min (Epoch, BioTek, Winooski, VT, USA), resulting from the reaction of DTNB and thiocholine released from ATCh or BTCh. All reactions were conducted in 96-well microplates and performed in triplicate. The percentage of inhibition (%) was determined using the following formula: inhibition (%)={(Ac−As)/Ac}×100 , where Ac represents the enzyme activity in the absence of the test sample, and As represents the enzyme activity in the presence of the test sample. The ChE-inhibitory activities of each sample were quantified in terms of IC50, which was calculated from the log–dose inhibition curve.

BChE from equine serum = target: T2, BChE from equine serum (Equus caballus, UniProt P81908); assay: biochemical; assay type: biochemical; settings: isolated compounds; mean ± SD, n = 3; ND = no detection using test concentration; read-out: IC50 BChE
T2 construct: BChE from equine serum; purchased Sigma-Aldrich Co., St. Louis, USA; host or cells: equine serum
T2 sequence (P81908 whole entry): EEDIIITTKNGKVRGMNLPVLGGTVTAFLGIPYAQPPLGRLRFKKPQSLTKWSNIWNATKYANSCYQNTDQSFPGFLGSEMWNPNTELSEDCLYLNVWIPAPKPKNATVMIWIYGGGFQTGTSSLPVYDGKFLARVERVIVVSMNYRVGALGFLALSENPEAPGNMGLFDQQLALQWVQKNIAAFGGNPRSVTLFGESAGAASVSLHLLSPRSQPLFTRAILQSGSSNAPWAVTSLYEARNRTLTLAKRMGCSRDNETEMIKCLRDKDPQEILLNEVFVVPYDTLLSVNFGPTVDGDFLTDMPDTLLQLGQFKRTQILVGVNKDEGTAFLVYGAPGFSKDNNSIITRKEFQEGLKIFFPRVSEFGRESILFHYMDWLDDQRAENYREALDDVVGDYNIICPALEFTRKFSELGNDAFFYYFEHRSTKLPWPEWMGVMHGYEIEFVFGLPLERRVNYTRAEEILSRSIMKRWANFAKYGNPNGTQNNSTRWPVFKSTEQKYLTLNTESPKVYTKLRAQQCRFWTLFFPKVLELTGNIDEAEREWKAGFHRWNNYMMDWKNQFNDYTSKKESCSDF
Experimental: as §1, §2

sAPPβ = assay: Western blot of sAPPβ levels in APP-CHO cells; assay type: cell-based, Chinese hamster; settings: 1.0 μM, 24 h
Experimental: (§3) APP-CHO cells were seeded in six-well plates at a density of 6 × 10^5 cells/1000 μL of medium per well and incubated at 37 °C overnight for cell attachment. Then, the medium was replaced with FBS-free RPMI 1640 for 1 h, followed by treatment with test samples at 37 °C. After 24 h, the cells were washed with PBS and lysed in Laemmli sample buffer. The collected cell lysates were boiled at 100 °C for 10 min. For Western blot analysis, 20 μg of proteins were separated by 7.5% SDS-PAGE and transferred to a PVDF membrane using Trans-Blot® Turbo TM (Bio-Rad, Hercules, CA, USA). The membrane was blocked with 5% skim milk in PBS for 1 h and incubated with primary antibodies overnight at 4 °C. The primary antibodies used were sAPPβ antibody, BACE1 antibody, and α-tubulin antibody diluted at 1:1000, 1:1000, and 1:25,000, respectively. After washing with PBS-T (0.1% Tween 20 in PBS) three times for 10 min each, secondary antibodies, diluted to 1:2500, were incubated for 1 h. Protein detection was performed using ECL solution reagent and protein visualization (ChemiDoc^TM XRS+., Bio-Rad, Hercules, CA, USA). The signal intensity of the bands was quantified and normalized to the signal intensity of the α-tubulin band. Results were expressed as a percentage of DMSO-treated control.

β-secretase = assay: Western blot of β-secretase levels in APP-CHO cells; assay type: cell-based, Chinese hamster; settings: 1.0 μM, 24 h
Experimental: as §3

| Compound | IC50 (AChE from electric eel) [µM] | IC50 (BChE from equine serum) [µM] | reduction of sAPPβ levels compared to DMSO-treated controls (sAPPβ) [%] | reduction of β-secretase levels compared to DMSO-treated controls (β-secretase) |
| --- | --- | --- | --- | --- |
| O=c1c(O[C@@H]2O[C@H](CO)[C@@H](O)[C@H](O)[C@H]2O)c(-c2ccc(O)cc2)oc2cc(O[C@@H]3O[C@@H](CO)[C@H](O)[C@H]3O)cc(O)c12 [Compound 7, kaempferol 3-o-b-d-glucopyranoside-7-o-a-L-arabinofuranoside] | 47.33 ± 0.22 | 28.8 ± 0.31 | 30 | 40% and 30% |
| C[C@@H]1O[C@@H](Oc2c(-c3ccc(O)cc3)oc3cc(O[C@@H]4O[C@H](CO)[C@@H](O)[C@H](O)[C@H]4O)cc(O)c3c2=O)[C@H](O)[C@H](O)[C@H]1O [Compound 6, kaempferol 3-O-rhamnoside 7-O-glucoside] | 353.43 ± 0.32 | 32.6 ± 5.66 | 30 | 30% |
